Entries after “also recorded” stand apart in the source; their conditions may differ. Counter-ions that a name gives are not always drawn.
Tests used:
[1] = Pharmacokinetics of the subject combination in moderate renal impairment
Text: (§1) Data are GMRs and 90% CIs. References used are the matched healthy subjects for renal and hepatic impairment studies, and extensive or ultra-extensive CYP2D6 metabolizers respectively.

[2] = Effect of food on pharmacokinetics of the subject combination; type: in vivo, human; details: subject combination administered with food
[3] = Pharmacokinetics of the subject combination in CYP2D6 poor metabolizers; details: steady state, hydrobromide monohydrate
Text: Approximately 7% to 10% of Caucasians and 3% to 8% of African Americans lack the capacity to metabolize CYP2D6 substrates and are classified as poor metabolizers.
as §1

[4] = Co-administration of the subject combination with paroxetine / strong CYP2D6 inhibitor; details: subject combination plus strong CYP2D6 inhibitor
Text: In some embodiments, the patients are monitored for adverse reactions potentially attributable to dextromethorphan, such as somnolence and dizziness.

[5] = Steady state pharmacokinetics after administration of the subject combination; details: for Cmax relative to the peak level of bupropion: after administration of the subject combination
[6] = clinical trials; cited from earlier work
[7] = clinical trials; cited from earlier work; remark: listed apart in the source

CC(NC(C)(C)C)C(=O)c1cccc(Cl)c1.Cl (racemic) [bupropion, (±)-1-(3-chlorophenyl)-2-[(1,1-dimethylethyl)amino]-1-propanone hydrochloride]
increase in exposure vs matched controls with normal renal function ([1]; human, in vivo): approximately 2 fold | reduction in clearance vs matched controls with normal renal function ([1]; human, in vivo): 50%

COc1ccc2c(c1)[C@]13CCCC[C@@H]1[C@H](C2)N(C)CC3 [dextromethorphan, morphinan, 3-methoxy-17-methyl-, (9α, 13α, 14α), hydrobromide monohydrate]
change of Cmax with food [2]: unchanged | reduction in clearance vs matched controls with normal renal function ([1]; moderate renal impairment (GFR 30-60 mL/min)): 50% | increase in exposure vs matched controls with normal renal function ([1]; moderate renal impairment (GFR 30-60 mL/min), 7 subjects vs 6 controls): approximately 2 fold | plasma concentrations in poor metabolizers compared with non-poor metabolizers [3]: increases plasma concentrations; also recorded: generally higher | plasma concentrations on concomitant use with a strong CYP2D6 inhibitor [4]: increases plasma concentrations | increase in mean elimination half-life compared to dextromethorphan given without bupropion ([5]; 8 days of the subject combination, extensive metabolizers): approximately 3 fold | pharmacokinetics at steady state (dose proportionality) ([5]; co-administered with bupropion, dextromethorphan 30 to 60 mg, bupropion 75 to 150 mg): nonlinear pharmacokinetics

CC(NC(C)(C)C)C(O)c1cccc(Cl)c1 (stereo not drawn) [erythrohydroxybupropion]
Cmax relative to the peak level of bupropion [5]: approximately equal to

CN[C@]1(c2ccccc2Cl)CCCCC1=O [esketamine, Esketamine]
patients who developed sedation based on MOAA/S [6]: 48% to 61 | patients who experienced loss of consciousness (MOAA/S score of 0) [6]: 0.3% to 0.4 | patients who developed dissociative or perceptual changes based on CADSS [7]: 61% to 84

C[C@H]1NC(C)(C)CO[C@]1(O)c1cccc(Cl)c1 [hydroxybupropion]
Cmax relative to the peak level of bupropion [5]: approximately 14 times

C[C@H](NC(C)(C)C)[C@@H](O)c1cccc(Cl)c1 [threohydroxybupropion]
Cmax relative to the peak level of bupropion [5]: about 5 times

Reference: patent publication US20260158025A1, “COMPOUNDS AND COMBINATIONS THEREOF FOR TREATING NEUROLOGICAL AND PSYCHIATRIC CONDITIONS” (priority 2024, published 2026)
